Measurements taken from patent publication US10093642B2, “Multitarget hedgehog pathway inhibitors and uses thereof” (UNIVERSITA' DEGLI STUDI DI SIENA, priority 2013, dated 2018).

How the values were obtained:
[1] = tested on: cerebellar granule progenitor cells (GCPs); assay: BrdU incorporation in Shh-treated cerebellar granule cell progenitors; assay type: cell-based, mouse; settings: Shh 3 μg/ml, 48 h
Protocol: FIG. 10. Cerebellar granule progenitor cells (GCPs) were treated with Shh (Recombinant mouse Sonic Hedgehog, amino-terminal peptide, 3 μg/ml) and with different concentrations of Glabrescione B, as indicated, for 48 h. Inhibition of cell proliferation was measured as percentage of BrdU incorporation in comparison to DMSO (0.5%, vehicle) treated sample.
A biological assay was performed in cerebellar neural progenitors cells obtained from 4-days-old mice, when they are actively proliferating under Sonic Hedgehog (Shh) stimulus. As expected, treatment of these cells with Shh increased the proliferation rate, as evaluated by BrdU-incorporation assay. […] To further evaluate the antiproliferative effect of Glabrescione B, human MB cell lines D283 were treated with Glabrescione B at different concentrations. […] The biomolecule was active, as shown by the growth rate inhibition (70-95%).
Another experiment to assess whether Glabrescione B also regulates Hh pathway in a physiological context was carried out in cerebellar granule cells precursors (GCPs) isolated from 4-days-old mice according to established protocols (Wechsler-Reya and Scott, 1999). Briefly, cerebella were removed aseptically, cut into small pieces, and incubated at room temperature for 15 min in digestion buffer [Dulbecco's PBS (Invitrogen, Gaithersburg, Md.) with 0.1% trypsin, 0.2% EDTA, and 100 μg/ml DNase]. […]

[2] = NMR monitoring of direct interaction with Zn2+; assay type: binding
Jun/AP1activation = assay: Selectivity: unrelated signal transduction pathway Jun/AP1 activation; assay type: cell-based
MEF-SuFu−/− cells = assay: Gli1 mRNA (quantitative RT-PCR) in MEF-SuFu−/− cells; assay type: cell-based, mouse; settings: different concentrations, 48 h
Protocol: FIG. 9. Confluent MEF-SuFu^−/− cells were treated with DMSO (0.5%, vehicle), GANT61 (10 μM, as positive control) or different concentrations of Glabrescione B for 48 h. Gli1 mRNA levels were determined by quantitative RT-PCR, normalizing to HPRT expression. Error bars indicate SD.
To analyze the antagonist properties of Glabrescione B under more physiological conditions, the inventors used MEF-Ptch^−/− cells, embryo fibroblasts derived from Ptch^−/− mouse, in which the activation of Hh signaling is consequence of Ptch1 deletion. Since Patched acts as upstream repressor of SMO, inhibition of the Hedgehog pathway from Patched is prevented and the Hedgehog pathway is constitutively activated in this cell lines, which turned out to be a reliable cellular model for studying the effect of Hedgehog inhibitors. […]
To further elucidate the concept of downstream pathway inhibition by Glabrescione B, the inventors used MEF-SuFu^−/− cells (a kind gift by R. Toftgard, Karolinska Institutet, Sweden, Svärd, J. et al, 2006), in which the downstream Hh pathway activation is consequence of SuFu genetic ablation. Confluent cells were treated with Glabrescione B at the amount indicated in the FIG. 9 and Gli1 expression levels were determined by quantitative RT-PCR as previously described. […]

## COc1cc(OC)c2c(=O)c(-c3ccc(OCC=C(C)C)c(OCC=C(C)C)c3)coc2c1 [Glabrescione B, 3-(3′,4′-bis(3-methylbut-2-enyloxy)phenyl)-5,7-dimethoxy-4H-chromen-4-one]
[1]
  Shh-induced proliferation (BrdU incorporation): antagonized this effect
[2]
  binding to Zn2+ (NMR): not capable of binding to the metal ions
Jun/AP1activation
  inhibition at 30 µM: 0%
MEF-SuFu−/− cells
  Gli1 expression levels (quantitative RT-PCR): significant reduction of the high expression levels of Gli1
